According to US6943166B1, “Compositions comprising phosphodiesterase inhabitors for the treatment of sexual disfunction” (Lilly ICOS LLC., priority 1999, dated 2005):

Columns and labels:
healthy male volunteers = experiment: Example 5: drug interaction study of Compound (I) with short-acting nitrates (hemodynamic effects); assay type: in vivo, human
Protocol: On the sixth or seventh day, the subjects received sublingual nitroglycerin (0.4 mg) while supine on a tilt table. […] The subjects were tilted to 70° head-up every 5 minutes for a total of 30 minutes with measurement of blood pressure and heart rate. There were no discontinuations among the twenty-two healthy male subjects (ages 19 to 60 years old) that entered this study.

patients in need thereof = experiment: Example 6: two randomized, double-blinded placebo controlled studies, daily and on demand dosing; assay type: in vivo, human
Protocol: In two randomized, double-blinded placebo controlled studies, Compound (I) was administered to patients in need thereof at a range of doses, in both daily dosing and for on demand therapy, for sexual encounters and intercourse in the home setting.
Enhanced erectile function was determined by the International Index of Erectile Function (IIEF) (Rosen et al., Urology, 49, pp. 822-830 (1997)), diaries of sexual attempts, and a global satisfaction question.

[1] = tested on: patients with male erectile dysfunction; experiment: Example 7: placebo-controlled on demand study in male erectile dysfunction (IIEF, SEP, safety); assay type: in vivo, human; conditions: for patients who rated ability to maintain an erection (IIEF Question 4) as almost always or always: at endpoint
Protocol: A third clinical study was a randomized, double-blind, placebo-controlled study of Compound (I) administered “on demand” to patients with male erectile dysfunction. Compound (I) was administered over a period of eight weeks in the treatment of male erectile dysfunction (ED). Erectile dysfunction (ED) is defined as the persistent inability to attain and/or maintain an erection adequate to permit satisfactory sexual performance.
The study population consisted of 212 men, at least 18 years of age, with mild to severe erectile dysfunction. […] Treatment with all nitrates, azole antifungals (e.g., ketoconazole or itraconazole), warfarin, erythromycin, or antiandrogens was not allowed at any time during the study. No other approved or experimental medications, treatments, or devices used to treat ED were allowed. Forty-one subjects were administered a placebo.
The two primary efficacy variables were the ability of a subject to penetrate their partner and their ability to maintain an erection during intercourse, as measured by the International Index of Erectile Function (IIEF). The IIEF Questionnaire contains fifteen questions, and is a brief, reliable measure of erectile function. See R. C. Rosen et al., Urology, 49, pp. 822-830 (1997)
Secondary efficacy variables were IIEF domain scores for erectile function, orgasmic function, sexual desire, intercourse satisfaction, and overall satisfaction; the patient's ability to achieve an erection, ability to insert their penis into their partner's vagina, completion of intercourse with ejaculation, satisfaction with the hardness of their erection, and overall satisfaction, all as measured by the Sexual Encounter Profile (SEP) diary; and a global assessment question asked at the end of the treatment period. […]
The safety aspect of the study included all enrolled subjects, and was assessed by evaluating all reported adverse events, and changes in clinical laboratory values, vital signs, physical examination results, and electrocardiogram results.

PDEl = conditions: package insert; cited from earlier work
[2] = tested on: patients taking organic nitrates; conditions: combination with organic nitrates; cited from earlier work
[3] = 10 mg daily for seven days, sublingual nitroglycerin 0.4 mg

flushing (patients in need thereof; doses from 5 to 20 mg) | Structure (SMILES) | changes in laboratory safety assessments or 12-lead ECGs (healthy male volunteers; 10 mg daily for seven days) | effect on mean maximal nitroglycerin-induced decrease in systolic blood pressure (healthy male volunteers; [3]) | effect on mean systolic blood pressure (healthy male volunteers; [3]) | impact on systolic blood pressure (healthy male volunteers; administered in conjunction with organic nitrates, human clinical studies) | efficacy for sexual encounters and intercourse (patients in need thereof; 10 mg dose) | side effects (patients in need thereof; 10 mg dose) | efficacy for sexual encounters and intercourse (patients in need thereof; doses from 5 to 20 mg) | percentage of successful intercourse attempts including ability to attain and maintain an erection (patients in need thereof; on demand and daily dosing regimens) | patients who rated ability to maintain an erection (IIEF Question 4) as almost always or always ([1]; 10 mg on demand) | patients who rated ability to maintain an erection (IIEF Question 4) as almost always or always ([1]; 25 mg on demand) | incidence of treatment-emergent adverse events ([1]; 2 to 25 mg on demand) | more potent inhibitor of PDE5 than PDE1 (PDEl) | blood pressure effect in patients taking organic nitrates [2]
less than 1% | CN1CC(=O)N2[C@H](c3ccc4c(c3)OCO4)c3[nH]c4ccccc4c3C[C@@H]2C1=O [Compound (I), (6R,12aR)-2,3,6,7,12,12a-hexahydro-2-methyl-6-(3,4-methylenedioxyphenyl)-pyrazino[2′,1′:6,1]pyrido[3,4-b]indole-1,4-dione] | no Compound (I) changes | minimal, if any, effect | minimal, if any, effect | minimal impact | fully efficacious | minimal side effects | efficacious | significantly improved | 39.0% | 69.0% | appeared related to dose |  | 
 | CCCc1nn(C)c2c(=O)[nH]c(-c3cc(S(=O)(=O)N4CCN(C)CC4)ccc3OCC)nc12 [sildenafil] |  |  |  |  |  |  |  |  |  |  |  | greater than 80 fold | clinically significant drop in blood pressure
